Results taken from publication PMC2832868 (Journal of Medicinal Chemistry, 2010).
Like-named read-outs stand apart in the source and are kept apart here. Marks after values point to notes of the source that are not given here.

Experiments:
Pharmacokinetics in mice = type: in vivo
[1] = Solubility in aqueous buffer; type: physicochemical
[2] = mice, cited from earlier work

| Foral (Pharmacokinetics in mice; oral administration of same dose (10 mg kg^−1)) | drug levels following oral dosing (Pharmacokinetics in mice; oral dosing 10 mg/kg) | solubility (S) at pH 7 [1] | SMILES | Foral ([2]; oral administration of same dose (25 mg kg^−1)) | Clp ([2]; plasma, IV dose 25 mg kg^−1) |
| --- | --- | --- | --- | --- | --- |
| <1 ^c % | no measurable drug levels |  | CC(C)(C)c1ccc(CC2(N)CCN(c3ncnc4[nH]ccc34)CC2)cc1 [Compound 10, 4-(4-tert-Butylbenzyl)-1-(7H-pyrrolo[2,3-d]pyrimidin-4-yl)piperidin-4-amine] |  |  |
|  |  | negligible solubility | NC1(Cc2ccc(Cl)cc2)CCN(c2ncnc3[nH]ccc23)CC1 [Compound 2, 4-(4-chlorobenzyl)-1-(7H-pyrrolo[2,3-d]pyrimidin-4-yl)piperidin-4-amine] | 8.5% | 0.33 L/h |
